Experimental data reported in patent publication US9101613B2, “Methods for treating neurological disease” (Neurim Pharmaceuticals (1991) Ltd., priority 2006, dated 2015).
Marks after values point to notes of the source that are not given here.

Assays:
mice = assay: Rotarod assay, interaction with diazepam; format: in vivo; conditions: for Incidence of performance (rotarod): 15 rpm; for effect on rotarod performance: compound alone i.p., 15 rpm rotation speed;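 as to Incidence of performance (rotarod): Success means running more than 120 min on the rod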
Protocol: The incidences of animals running more than […] on the rotating rod were noted, and significances were calculated by non-parametric x^2 test. 8 mice/group were used.
The rotarod apparatus is divided into five test zones, so that up to five mice may be tested at the same time. The rod has been specially machined to provide a suitable grip for the animal. The diameter of the rod is 3.5 cm. The rotation speed was 15 rpm. When the animal falls off the rotating rod, it presses a button to record automatically the time spent on the rod. On the day before the experiment the mice were trained to run on the rod rotating with 15 rpm. Diazepam was administered orally 60 min before the rotarod assay, test substances were administered intraperitoneally 15 min before testing.

[1] = test system: rat primary cortical neurons; assay: Neurite outgrowth in rat primary cortical neurons; format: cell-based
Protocol: The aim of this study was to assess the potential effect of N-[2-(5-methoxy-indol-3-yl)-ethyl]-comanilamide (100 nM) after 5 days of culture on neurite outgrowth in rat primary cortical neurons. The study used three separate cultures (n=6 wells per condition); the mean value of the 3 cultures (+/−sem) was calculated.
Rat cortical neurons were cultured as described by Singer et al., 1999. Briefly pregnant female rats of 15 days gestation are killed by cervical dislocation (Rats Wistar; Janvier) and the fetuses removed from the uterus. The cortex are removed and placed in ice-cold medium of Leibovitz (L15; Invitrogen) containing 1% of Penicillin-Streptomycin (PS; Invitrogen) and 1% of bovine serum albumin (BSA; Sigma). Cortex are dissociated by trypsinisation for 20 min at 37° C. (Trypsin EDTA 1×; Invitrogen) diluted in PBS without calcium and magnesium. The reaction is stopped by the addition of Dulbecco's modified Eagle's medium (DMEM; Invitrogen) containing DNAase I grade II (0.1 mg/ml; Roche Diagnostic) and 10% of fetal calf serum (FCS; Invitrogen). Cells are then mechanically dissociated by 3 passages through a 10 ml pipette. Cells are then centrifuged at 180×g for 10 min at 10° C. The supernatant is discarded and the cells of pellet are re-suspended in a defined culture medium consisting of Neurobasal (Invitrogen) supplemented with B27 (2%; Invitrogen), L-glutamine (0.2 mM; Invitrogen) and 1% of PS solution with 10 ng/ml of Brain-derived neurotrophic factor (BDNF).
For the neurite outgrowth assay, the cells are seed with test compound A (at 100 nM) and reference compound (BDNF at 10 ng/ml used as reference control) on defined medium (Neurobasal supplemented with 2% of B27, 0.2 mM of L-glutamine and 1% of PS).
The cultures were done (a) without BDNF in order to analyse the neurotrophic effect of compounds alone and (b) with low BDNF concentration (0.5 ng/ml) in order to analyse the synergic neurotrophic effect of N-[2-(5-methoxy-indol-3-yl)-ethyl]-comanilamide with the growth factor.
After 5 days of culture in presence of N-[2-(5-methoxy-indol-3-yl)-ethyl]-comanilamide and reference, cells were fixed by a cool solution of ethanol (95%) and acetic acid (5%) for 10 min. After permeabilization with 0.1% of saponin, cells were incubated with monoclonal antibody anti microtubule associated protein 2 (MAP-2; Sigma). This antibody stains specifically cell bodies and neurite of neurons. […] Nuclei of neurons were labeled by a fluorescent marker (Hoechst solution, SIGMA). Per well, 20 pictures were taken using InCell Analyzer™ 1000 (GE Healthcare) with 20× magnification. All images were done in the same conditions. Analysis of the neuritis networks and neuron were assessed using Developer software (GE Healthcare). […]

PC12 cells = assay: Glutamate-induced loss of cell viability in PC12 cells (MTT); format: cell-based
Protocol: For the cell viability assays, 24 h after seeding in 96-well plates, the cultures were pretreated with N-[2-(5-methoxy-indol-3-yl)-ethyl]-comanilamide (100 pm, 1 nM, 10 nM, 100 nM, 1 uM and 10 uM) or melatonin (1 uM) for 0 h before exposure to 4 mM glutamate. After 24 h incubation, cellular viability was evaluated by MTT assay.
PC12 cell viability was determined by the conventional 3-(4,5-dimethylthiazol-2-yl)-2,5-diphenyltetrazolium bromide (MTT) assay. PC12 cells were treated with MTT solution (0.5 mg/ml) and were then incubated at 37° C. for 4 hrs. The medium was removed and 150 μl DMSO/well was added to dissolve formazan. The absorbance at 570 nm was recorded using an enzyme-linked immunosorbent assay reader and the percentage of cell growth inhibition was calculated as follows: Cell viability (%)=A570 (treatment)/A570 (control)×100.

5-HT2A receptor = molecular target: T1, 5-HT2A receptor (Homo sapiens, UniProt P28223); assay: Serotonin receptor binding, [3H] Ketanserin, CHO-K1 membranes
T1 construct: expressed in transfected cells; host or cells: CHO-K1
T1 sequence (P28223 whole entry): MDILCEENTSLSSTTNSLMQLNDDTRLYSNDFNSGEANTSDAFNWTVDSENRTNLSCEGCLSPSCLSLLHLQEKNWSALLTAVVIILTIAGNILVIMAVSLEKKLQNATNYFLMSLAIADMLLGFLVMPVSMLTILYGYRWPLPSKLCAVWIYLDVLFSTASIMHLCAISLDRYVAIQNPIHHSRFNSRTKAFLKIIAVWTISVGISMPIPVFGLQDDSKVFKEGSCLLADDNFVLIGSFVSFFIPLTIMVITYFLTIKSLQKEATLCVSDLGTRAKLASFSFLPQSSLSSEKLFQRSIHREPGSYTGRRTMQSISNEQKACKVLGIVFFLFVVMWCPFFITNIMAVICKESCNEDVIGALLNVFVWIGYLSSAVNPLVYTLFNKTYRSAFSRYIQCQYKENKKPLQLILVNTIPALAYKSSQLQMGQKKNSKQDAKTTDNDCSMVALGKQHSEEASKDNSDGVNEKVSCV
Protocol: Aliquots of suspended membranes of human recombinant CHO-K1 cells stably expressing human 5-HT1A, 5-HT2A, 5-HT1B, 5-HT2B, 5-HT2C, 5-HT4, 5-HT6 or 5-HT7 receptors were pre-incubated at 25° C. with 1.5 nM [^3H] 8-OH-DPAT (5-HT1A), 1.5 nM [^3H] Ketanserin (5-HT2A), 0.01 nM [^125I] Cyanopindolol (5-HT1B), 1 nM [^3H] Mesulergine (5-HT2c), 0.7 nM [^3H] GR-113808 (5-HT4) or at 37° C. 1.2 nM [^3H] LSD (5-HT2B, 5-HT6 and 5-HT7) in buffer (50 mM Tris-HCl, pH 7.7) alone or in the presence of 1 nM, 10 nM, 0.1 μM, 1 μM, and 10 μM of N-[2-(5-methoxy-indol-3-yl)-ethyl]-commenamide, N-[2-(5-methoxy-indol-3-yl)-ethyl]-coumalylamide, N-[2-(5-methoxy-indol-3-yl)-ethyl]-comanilamide, N-[2-(5-methoxy-indol-3-yl)-ethyl]-2-methoxy-commenamide or N-[2-(5-methoxy-indol-3-yl)-ethyl]-chelidonamide for 60 minutes. The binding reaction was terminated and washed with 4 ml ice-cold 50 mM Tris-HCl buffer by vacuum filtration. Membranes were then collected, and the filters containing the bound ligands were assayed for the amount of radioactivity in a b-counter. Non-specific binding was evaluated using a reaction with 10 μM metergoline (5-HT1A), 1 μM mianserin (5-HT2A and 5-HT2c) or 10 μM serotonin (5-HT1B, 5-HT2B, 5-HT4, 5-HT6 and 5-HT7).

[2] = Diazepam 1.5 mg/kg p.o. + compound 5 mg/kg i.p.
[3] = Diazepam 1.5 mg/kg p.o. + compound 20 mg/kg i.p.
[4] = Diazepam 1.5 mg/kg p.o. + compound 50 mg/kg i.p.
[5] = Vehicle p.o. + compound 5 mg/kg i.p.
[6] = Vehicle p.o. + compound 20 mg/kg i.p.
[7] = Vehicle p.o. + compound 50 mg/kg i.p.

COc1ccc2[nH]cc(CCNC(=O)c3cc(=O)cco3)c2c1 [N-[2-(5-methoxy-indol-3-yl)-ethyl]-comanilamide]
Incidence of performance (rotarod) (mice; [2]): 4/8* | Incidence of performance (rotarod) (mice; [3]): 2/8*** | Incidence of performance (rotarod) (mice; [4]): 1/8*** | Incidence of performance (rotarod) (mice; [5]): 6/8 | Incidence of performance (rotarod) (mice; [6]): 5/8 | Incidence of performance (rotarod) (mice; [7]): 5/8 | effect on rotarod performance (mice): dose dependently impaired the performance | neurotrophic effect, compound alone ([1]; 100 nM alone in the culture medium, without BDNF): no neurotrophic effect | activity at 0.1 µM ([1]; Rattus norvegicus, Primary cortical neuron, 120 h, 100 nM + BDNF 0.5 ng/ml, 5 days of culture, read-out: neurite length, % of control): ~145% | effect on cell viability without glutamate (PC12 cells; 10 uM, without glutamate): had no effect on the cell viability | effect on glutamate-induced loss of cell viability (PC12 cells; 100 pm to 10 uM, all doses, 4 mM glutamate, 24 h, MTT): significantly attenuated glutamate-induced loss of cell viability

COc1ccc2[nH]cc(CCNC(=O)c3cc(=O)cc(C(=O)O)o3)c2c1 [N-[2-5-methoxy-indol-3-yl)-ethyl]-chelidonamide]
IC50 (5-HT2A receptor): 7.5 µM | Ki (5-HT2A receptor): 2.14 µM

COc1ccc2[nH]cc(CCNC(=O)c3cc(=O)c(O)co3)c2c1 [N-[2-(5-methoxy-indol-3-yl)-ethyl]-commenamide]
Incidence of performance (rotarod) (mice; [2]): 5/8 | Incidence of performance (rotarod) (mice; [3]): 3/8** | Incidence of performance (rotarod) (mice; [4]): 1/8*** | Incidence of performance (rotarod) (mice; [5]): 8/8 | Incidence of performance (rotarod) (mice; [6]): 5/8 | Incidence of performance (rotarod) (mice; [7]): 5/8 | effect on rotarod performance (mice): dose dependently impaired the performance
